Data taken from patent publication US7557145B2, “Inhibition of the asexual reproduction of fungi by eugenol and/or derivatives thereof” (Henkel Kommanditgesellschaft auf Aktien (Henkel KGAA), priority 2003, dated 2009).

Key:
Type in all cases: cell-based
[1] = test system: Aspergillus niger (DSM 1988); test: Sporulation of Aspergillus niger on a filter surface after 2 applications; conditions: for Sporulation [%]: filter paper treated twice with 50 μl, 3 days at 25° C.
Description: Effect of Eugenol on the Sporulation of Aspergillus niger on a Filter Surface After 2 Applications
Filter papers (2×2 cm) were disinfected and treated twice with a 1 hour interval with 50 μl of active-component solutions differing in concentration. The test specimens were then dried. The test specimens were then placed on wort agar plates and the surface of the wort agar plates was contaminated with 100 μl of a germ suspension (10^3 CFU/ml) of Aspergillus niger (DSM 1988). The plates were incubated for 3 days at 25° C. Sporulation was visually evaluated and the sporulation rate in [%] was determined. […] Sporulation was inhibited by increasing concentrations of eugenol and was 90% suppressed at 90 μm.

[2] = test system: Aspergillus niger, DSM 1988; test: Sporulation of Aspergillus niger on the surface of an acetate jointing compound
Description: Effect on Eugenol on the Sporulation of Aspergillis niger on the Surface of an Acetate Jointing Compound
Commercially available, but preservative-free, one-component silicone jointing compounds curing at room temperature (acetate system, cured 2.2×2.2×0.3 cm pieces of film) were disinfected with 70% EtOH (ethanol) and placed for 24 h in active component solutions with various concentrations (in ethanol, see Table for final concentrations). The test specimens were then re-washed twice with EtOH, rinsed with water (sterile) and dried for 24 h. The test specimens were weighed before and after this treatment and the quantity of active component in the test specimens was thus determined together with the concentration of the active component solution. The test specimens were then placed on wort agar plates and thinly coated with agar in which fungal spores had been incorporated (10^5 CFU/ml Aspergillus niger, DSM 1988). The plates were incubated for 3 days at 25° C. Sporulation was visually evaluated from the test specimens and the sporulation rate in [%] was determined.

[3] = test system: Aspergillus niger (DSM 1988); test: Sporulation of Aspergillus niger on wort agar plates containing active component
Description: Effect of Eugenol and Eugenol Silicic Acid Esters on the Sporulation of Aspergillus niger
Contamination of the surface of wort agar plates with 100 μl of a germ suspension (10^3 CFU/ml) of Aspergillus niger (DSM 1988). Various quantities of active component (solutions in ethanol, final concentrations in % by weight, see Table) were added to the agar plates beforehand. The plates were incubated for 3 days at 25° C. Sporulation was visually evaluated and the sporulation rate in [%] was determined. […]

SMILES: C=CCc1ccc(O)c(OC)c1 [eugenol, 4-allyl-2-methoxyphenol]
- Sporulation suppressed ([1]; at 90 μm, filter surface after 2 applications): 90%
- Sporulation [%] ([1]; concentration 0.6 μm): 100%
- Sporulation [%] ([1]; concentration 6 μm): 100%
- Sporulation [%] ([1]; concentration 30 μm): 100%
- Sporulation [%] ([1]; concentration 45 μm): 100%
- Sporulation [%] ([1]; concentration 60 μm): 100%
- Sporulation [%] ([1]; concentration 90 μm): 10%
- Sporulation [%] ([1]; concentration 120 μm): 10%
- Sporulation [%] ([2]; concentration of eugenol 1.7 μm/g jointing compound, 3 days at 25° C.): 0%
- Sporulation [%] ([2]; concentration of eugenol <1 μm/g jointing compound, 3 days at 25° C.): 100%
- Sporulation [%] ([2]; concentration of eugenol ca. 3 μm/g jointing compound, 3 days at 25° C.): 0%
- Concentration at which sporulation was completely suppressed ([2]; silicone jointing compound (acetate system), 3 days at 25° C.): 1.7 μm/g jointing compound
- Sporulation [%] ([3]; concentration of eugenol 4 μm in wort agar, 3 days at 25° C., visually evaluated): 100%
- Sporulation [%] ([3]; concentration of eugenol 40 μm in wort agar, 3 days at 25° C.): 100%
- Sporulation [%] ([3]; concentration of eugenol 65 μm in wort agar, 3 days at 25° C.): 100%
- Sporulation [%] ([3]; concentration of eugenol 90 μm in wort agar, 3 days at 25° C.): 80%
- Sporulation [%] ([3]; concentration of eugenol 110 μm in wort agar, 3 days at 25° C.): 70%
- Sporulation [%] ([3]; concentration of eugenol 220 μm in wort agar, 3 days at 25° C.): 0%
- Sporulation [%] ([3]; concentration of eugenol 330 μm in wort agar, 3 days at 25° C.): 0%
- Sporulation [%] ([3]; concentration of eugenol 650 μm in wort agar, 3 days at 25° C.): 0%
- Concentration at which sporulation was completely suppressed ([3]; wort agar plates, 3 days at 25° C.): 220 µM

SMILES: CC(C)=CCCC(C)=CCCC(C)=CCO [farnesol, reference compound]
- Sporulation [%] ([1]; concentration 0.5 μm): 100%
- Sporulation [%] ([1]; concentration 5 μm): 100%
- Sporulation [%] ([1]; concentration 25 μm): 100%
- Sporulation [%] ([1]; concentration 35 μm): 60%
- Sporulation [%] ([1]; concentration 50 μm): 80%
- Sporulation [%] ([1]; concentration 70 μm): 50%
- Sporulation [%] ([1]; concentration 90 μm): 40%
- Inhibition of sporulation compared with eugenol ([1]; second, parallel test series, identical concentrations): inhibited, but to a lesser extent compared with identical concentrations of eugenol
- Sporulation [%] ([2]; concentration of farnesol 0.4 μm/g jointing compound, 3 days at 25° C.): 100%
- Sporulation [%] ([2]; concentration of farnesol 1.1 μm/g jointing compound, 3 days at 25° C.): 100%
- Sporulation [%] ([2]; concentration of farnesol 17 μm/g jointing compound, 3 days at 25° C.): 30%
- Inhibition of sporulation compared with eugenol ([2]; parallel test series, identical concentrations): inhibited, but to a far lesser extent compared with identical concentrations of eugenol
- Sporulation [%] ([3]; comparison test, concentration of farnesol 125 μm): 50%
